According to patent US9809623B2, “α4β7 peptide monomer and dimer antagonists” (Protagonist Therapeutics, Inc., priority 2014, dated 2017):
Numbered stars: 1 amine (or outer) side, 2 acyl side, 3 side chain; on linkers, the order of the positions; unused ones are H or OH. Bridge positions count the residues as written; N and C are the ends. Square brackets hold non-standard residues; d marks the D form. Peptide text beside a SMILES is read from it. I, II: the chains in the order shown. ξ: configuration not given here. Phe(4-COOH) = N[C@@H](Cc1ccc(C(=O)O)cc1)C(=O)O; Phe(4-tBu) = CC(C)(C)c1ccc(C[C@H](N)C(=O)O)cc1; Bip = N[C@@H](Cc1ccc(-c2ccccc2)cc1)C(=O)O; 1Nal = N[C@@H](Cc1cccc2ccccc12)C(=O)O; Diglycolyl = O=C(COCC(=O)[*:2])[*:1]; NMeR = CN[C@@H](CCCNC(=N)N)C(=O)O; β3hE = N[C@@H](CCC(=O)O)CC(=O)O; Thr(3ξ) = CC(O)[C@H](N)C(=O)O; NMeK = CN[C@@H](CCCCN)C(=O)O; Pen = CC(C)(S)[C@H](N)C(=O)O; dNMeK = CN[C@H](CCCCN)C(=O)O

Each compound was assayed against T1, α4β7 (Mus musculus, UniProt P26011+Q00651) (assay: α4β7 Cell Adhesion Assay (Mouse), TK1 cells). Details: Table 3-B, Potency (α4β7); range classes; read-out: α4β7 cell(MU) IC50.
T1 construct: host or cells: TK1 mouse T cells
Type: cell-based
Method: TK1 cells (ATCC # ATCC-CRL-2396) were cultured in RPMI 1640 with 2 mM L-glutamine adjusted to contain 1.5 g/L sodium bicarbonate, 4.5 g/L glucose, 10 mM HEPES, and 1.0 mM sodium pyruvate (ATCC#30-2001) and supplemented with 0.1 mM non-essential amino acids, (ATCC #30-2116) 0.05 mM 2-mercaptoethanol (Invitrogen #21985) and 10% serum (Fetal Bovine Serum, Invitrogen #16140-071), and Penicillin-Streptomycin (Invitrogen #15140-122) at 100 units of penicillin and 100 μg of streptomycin per ml. The cells were washed two times in DMEM medium (ATCC #30-2002) supplemented with 0.1% BSA, 10 mM HEPES pH 7 and 1 mM MnCl2. The cells were re-suspended in supplemented DMEM medium at a density of 4×10^6 cells/ml.
A Nunc MaxiSorp plate was coated with Recombinant human MAdCAM-1 Fc Chimera (R&D #6065-MC) at 200 ng per well in 100 μl per well in 1×PBS and incubated at 4° C. overnight. The solution was then removed by shaking, blocked with 250 ul per well PBS containing 1% BSA, and incubated at 37° C. for 1 hr. The solution was removed by shaking. DATK 32 (anti-mouse α4β7) and peptides were diluted by serial dilution in a final volume of 50 ul per well (2× concentration). To each well, 50 ul of cells (200,000 cells) are added and the plate is incubated at 37° C., 5% CO2 for 30-45 min to allow cell adhesion. The plate was manually washed three times with supplemented DMEM, 100 ul per wash. After the final wash, 100 ul/well of supplemented DMEM and […] of MTT reagent (ATTC cat#30-1010K) was added to each well. Wells were incubated at 37° C. with 5% CO2 for 2-3 hrs until purple precipitate was visible. 100 μl of Detergent Reagent (ATTC cat#30-1010K) was added to each well. The plate was then wrapped with Para film to prevent evaporation, and left overnight at room temperature in the dark. The plate was shaken for 5 min and the absorbance at 570 nm was measured. To calculate the dose response, the absorbance value of control wells not containing cells was subtracted from each test well.

T1 sequence (Q00651 34-1039 limits assumed): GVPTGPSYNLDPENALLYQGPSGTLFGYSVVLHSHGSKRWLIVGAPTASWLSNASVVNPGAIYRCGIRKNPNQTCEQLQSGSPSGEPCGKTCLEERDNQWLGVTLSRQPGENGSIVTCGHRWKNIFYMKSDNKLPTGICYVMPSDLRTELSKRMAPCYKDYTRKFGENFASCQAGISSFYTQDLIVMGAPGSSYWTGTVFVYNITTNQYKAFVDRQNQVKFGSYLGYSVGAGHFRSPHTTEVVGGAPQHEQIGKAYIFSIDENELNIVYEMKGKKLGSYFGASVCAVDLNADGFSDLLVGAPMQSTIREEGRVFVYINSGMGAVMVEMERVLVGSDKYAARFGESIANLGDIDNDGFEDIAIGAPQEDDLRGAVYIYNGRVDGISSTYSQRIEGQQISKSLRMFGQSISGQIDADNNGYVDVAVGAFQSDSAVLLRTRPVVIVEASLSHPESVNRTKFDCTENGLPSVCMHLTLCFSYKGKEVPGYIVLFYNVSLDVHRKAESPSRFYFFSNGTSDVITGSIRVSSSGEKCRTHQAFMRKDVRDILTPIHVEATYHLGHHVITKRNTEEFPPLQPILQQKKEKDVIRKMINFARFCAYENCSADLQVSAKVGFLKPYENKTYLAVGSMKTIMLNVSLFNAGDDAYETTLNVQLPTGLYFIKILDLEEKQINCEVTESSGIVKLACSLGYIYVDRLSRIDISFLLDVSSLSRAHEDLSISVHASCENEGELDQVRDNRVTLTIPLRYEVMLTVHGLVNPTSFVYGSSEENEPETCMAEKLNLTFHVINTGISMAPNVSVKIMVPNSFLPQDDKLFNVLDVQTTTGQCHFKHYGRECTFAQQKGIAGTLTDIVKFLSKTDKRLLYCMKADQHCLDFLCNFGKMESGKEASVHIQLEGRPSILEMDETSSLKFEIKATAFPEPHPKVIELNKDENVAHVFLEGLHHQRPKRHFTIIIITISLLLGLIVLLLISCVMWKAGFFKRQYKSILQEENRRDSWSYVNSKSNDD
T1 sequence (P26011 20-806): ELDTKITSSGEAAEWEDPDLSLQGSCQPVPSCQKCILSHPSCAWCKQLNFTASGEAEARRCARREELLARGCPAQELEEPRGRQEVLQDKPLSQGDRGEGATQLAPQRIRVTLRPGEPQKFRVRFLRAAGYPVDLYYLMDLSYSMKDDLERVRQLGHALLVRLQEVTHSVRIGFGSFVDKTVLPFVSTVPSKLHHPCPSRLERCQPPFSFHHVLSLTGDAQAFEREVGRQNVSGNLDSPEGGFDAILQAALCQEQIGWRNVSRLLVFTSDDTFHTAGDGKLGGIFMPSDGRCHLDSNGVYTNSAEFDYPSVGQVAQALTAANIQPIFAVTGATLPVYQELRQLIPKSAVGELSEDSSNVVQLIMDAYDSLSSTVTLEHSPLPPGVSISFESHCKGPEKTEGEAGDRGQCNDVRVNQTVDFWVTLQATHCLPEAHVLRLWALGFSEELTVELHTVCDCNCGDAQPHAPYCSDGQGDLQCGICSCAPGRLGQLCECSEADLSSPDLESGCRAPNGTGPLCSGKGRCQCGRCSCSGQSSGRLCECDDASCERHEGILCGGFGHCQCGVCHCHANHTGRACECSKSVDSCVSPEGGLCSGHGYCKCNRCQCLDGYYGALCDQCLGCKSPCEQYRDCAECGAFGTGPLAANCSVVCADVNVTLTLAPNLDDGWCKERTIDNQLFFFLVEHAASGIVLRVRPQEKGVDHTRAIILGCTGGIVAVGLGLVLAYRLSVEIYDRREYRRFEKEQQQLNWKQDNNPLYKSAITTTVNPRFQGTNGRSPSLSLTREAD

Compared with `CC(=O)N[C@@H]1C(=O)N(C)[C@@H](CCCNC(=N)N)C(=O)N[C@@H](CO)C(=O)N[C@@H](CC(=O)O)C(=O)N[C@@H]([C@@H](C)O)C(=O)N[C@@H](CC(C)C)C(=O)N[C@H](C(=O)N[C@@H](Cc2ccc(C(C)(C)C)cc2)C(=O)N[C@@H](CCC(=O)O)CC(=O)O)C(C)(C)SSC1(C)C` [compound 152] (Ac-[Pen][NMeR]SDTL[Pen][Phe(4-tBu)][β3hE]-OH; disulfide 1-7), `CC(=O)N[C@@H]1C(=O)N(C)[C@@H](CCCNC(=N)N)C(=O)N[C@@H](CO)C(=O)N[C@@H](CC(=O)O)C(=O)N[C@@H]([C@@H](C)O)C(=O)N[C@@H](CC(C)C)C(=O)N[C@H](C(=O)N[C@@H](Cc2ccc(C(C)(C)C)cc2)C(=O)N[C@@H](CCC(=O)O)CC(=O)N[C@H](CCCCN)C(N)=O)C(C)(C)SSC1(C)C` [compound 153] (Ac-[Pen][NMeR]SDTL[Pen][Phe(4-tBu)][β3hE][dK]-NH2; disulfide 1-7) is higher in IC50: < 10 nM for the first, 10 to 25 nM for the second.

`CC(=O)N[C@@H]1C(=O)N(C)[C@@H](CCCNC(=N)N)C(=O)N[C@@H](CO)C(=O)N[C@@H](CC(=O)O)C(=O)N[C@@H]([C@@H](C)O)C(=O)N[C@@H](CC(C)C)C(=O)N[C@H](C(=O)N[C@@H](Cc2ccc(C(=O)O)cc2)C(=O)N[C@@H](CCC(=O)O)CC(=O)N(C)[C@@H](CCCCNC(=O)COCC(=O)NCCCC[C@@H](C(N)=O)N(C)C(=O)C[C@H](CCC(=O)O)NC(=O)[C@H](Cc2ccc(C(=O)O)cc2)NC(=O)[C@H]2NC(=O)[C@H](CC(C)C)NC(=O)[C@H]([C@@H](C)O)NC(=O)[C@H](CC(=O)O)NC(=O)[C@H](CO)NC(=O)[C@H](CCCNC(=N)N)N(C)C(=O)[C@@H](NC(C)=O)C(C)(C)SSC2(C)C)C(N)=O)C(C)(C)SSC1(C)C` [compound 148] (I: Ac-[Pen][NMeR]SDTL[Pen][Phe(4-COOH)][β3hE][NMeK]-NH2 / II: Ac-[Pen][NMeR]SDTL[Pen][Phe(4-COOH)][β3hE][NMeK]-NH2; disulfide I:1-I:7, II:1-II:7; linker I:10-II:10 via Diglycolyl) and `CC(=O)N[C@@H]1C(=O)N(C)[C@@H](CCCNC(=N)N)C(=O)N[C@@H](CO)C(=O)N[C@@H](CC(=O)O)C(=O)N[C@@H]([C@@H](C)O)C(=O)N[C@@H](CC(C)C)C(=O)N[C@H](C(=O)N[C@@H](Cc2ccc(C(=O)O)cc2)C(=O)N[C@@H](CCC(=O)O)C(=O)N(C)[C@@H](CCCCNC(=O)COCC(=O)NCCCC[C@@H](C(N)=O)N(C)C(=O)[C@H](CCC(=O)O)NC(=O)[C@H](Cc2ccc(C(=O)O)cc2)NC(=O)[C@H]2NC(=O)[C@H](CC(C)C)NC(=O)[C@H]([C@@H](C)O)NC(=O)[C@H](CC(=O)O)NC(=O)[C@H](CO)NC(=O)[C@H](CCCNC(=N)N)N(C)C(=O)[C@@H](NC(C)=O)C(C)(C)SSC2(C)C)C(N)=O)C(C)(C)SSC1(C)C` [compound 147] (I: Ac-[Pen][NMeR]SDTL[Pen][Phe(4-COOH)]E[NMeK]-NH2 / II: Ac-[Pen][NMeR]SDTL[Pen][Phe(4-COOH)]E[NMeK]-NH2; disulfide I:1-I:7, II:1-II:7; linker I:10-II:10 via Diglycolyl) cannot be ordered by IC50: < 10 nM for the first, < 10 nM for the second.

`CC(=O)N[C@@H]1C(=O)N(C)[C@@H](CCCNC(=N)N)C(=O)N[C@@H](CO)C(=O)N[C@@H](CC(=O)O)C(=O)N[C@@H]([C@@H](C)O)C(=O)N[C@@H](CC(C)C)C(=O)N[C@H](C(=O)N[C@@H](Cc2ccc(C(C)(C)C)cc2)C(=O)N[C@@H](CCC(=O)O)CC(=O)N(C)[C@@H](CCCCNC(=O)COCC(=O)NCCCC[C@@H](C(N)=O)N(C)C(=O)C[C@H](CCC(=O)O)NC(=O)[C@H](Cc2ccc(C(C)(C)C)cc2)NC(=O)[C@H]2NC(=O)[C@H](CC(C)C)NC(=O)[C@H]([C@@H](C)O)NC(=O)[C@H](CC(=O)O)NC(=O)[C@H](CO)NC(=O)[C@H](CCCNC(=N)N)N(C)C(=O)[C@@H](NC(C)=O)C(C)(C)SSC2(C)C)C(N)=O)C(C)(C)SSC1(C)C` [compound 149] (I: Ac-[Pen][NMeR]SDTL[Pen][Phe(4-tBu)][β3hE][NMeK]-NH2 / II: Ac-[Pen][NMeR]SDTL[Pen][Phe(4-tBu)][β3hE][NMeK]-NH2; disulfide I:1-I:7, II:1-II:7; linker I:10-II:10 via Diglycolyl) and `CC(=O)N[C@@H]1C(=O)N(C)[C@@H](CCCNC(=N)N)C(=O)N[C@@H](CO)C(=O)N[C@@H](CC(=O)O)C(=O)N[C@@H]([C@@H](C)O)C(=O)N[C@@H](CC(C)C)C(=O)N[C@H](C(=O)N[C@@H](Cc2ccc(-c3ccccc3)cc2)C(=O)N[C@@H](CCC(=O)O)CC(=O)N(C)[C@@H](CCCCNC(=O)COCC(=O)NCCCC[C@@H](C(N)=O)N(C)C(=O)C[C@H](CCC(=O)O)NC(=O)[C@H](Cc2ccc(-c3ccccc3)cc2)NC(=O)[C@H]2NC(=O)[C@H](CC(C)C)NC(=O)[C@H]([C@@H](C)O)NC(=O)[C@H](CC(=O)O)NC(=O)[C@H](CO)NC(=O)[C@H](CCCNC(=N)N)N(C)C(=O)[C@@H](NC(C)=O)C(C)(C)SSC2(C)C)C(N)=O)C(C)(C)SSC1(C)C` [compound 150] (I: Ac-[Pen][NMeR]SDTL[Pen][Bip][β3hE][NMeK]-NH2 / II: Ac-[Pen][NMeR]SDTL[Pen][Bip][β3hE][NMeK]-NH2; disulfide I:1-I:7, II:1-II:7; linker I:10-II:10 via Diglycolyl) cannot be ordered by IC50: < 10 nM for the first, < 10 nM for the second.

For `CC(=O)N[C@@H]1C(=O)N(C)[C@@H](CCCNC(=N)N)C(=O)N[C@@H](CO)C(=O)N[C@@H](CC(=O)O)C(=O)N[C@@H]([C@@H](C)O)C(=O)N[C@@H](CC(C)C)C(=O)N[C@H](C(=O)N[C@@H](Cc2cccc3ccccc23)C(=O)N[C@@H](CCC(=O)O)C(=O)N(C)[C@H](CCCCNC(=O)COCC(=O)NCCCC[C@H](C(N)=O)N(C)C(=O)[C@H](CCC(=O)O)NC(=O)[C@H](Cc2cccc3ccccc23)NC(=O)[C@H]2NC(=O)[C@H](CC(C)C)NC(=O)[C@H]([C@@H](C)O)NC(=O)[C@H](CC(=O)O)NC(=O)[C@H](CO)NC(=O)[C@H](CCCNC(=N)N)N(C)C(=O)[C@@H](NC(C)=O)C(C)(C)SSC2(C)C)C(N)=O)C(C)(C)SSC1(C)C` [compound 44] (I: Ac-[Pen][NMeR]SDTL[Pen][1Nal]E[dNMeK]-NH2 / II: Ac-[Pen][NMeR]SDTL[Pen][1Nal]E[dNMeK]-NH2; disulfide I:1-I:7, II:1-II:7; linker I:10-II:10 via Diglycolyl), the IC50 was < 10 nM.

Same assay, conditions: mouse T cell TK1; read-out: IC50 for blocking adhesion of TK1 cell line to MAdCAM-1

For `CC(=O)N[C@@H]1C(=O)N(C)[C@@H](CCCNC(=N)N)C(=O)N[C@@H](CO)C(=O)N[C@@H](CC(=O)O)C(=O)N[C@@H](C(C)O)C(=O)N[C@@H](CC(C)C)C(=O)N[C@H](C(=O)N[C@@H](Cc2ccc(C(C)(C)C)cc2)C(=O)N[C@@H](CCC(=O)O)CC(=O)N[C@H](CCCCNC(=O)COCC(=O)NCCCC[C@@H](NC(=O)C[C@H](CCC(=O)O)NC(=O)[C@H](Cc2ccc(C(C)(C)C)cc2)NC(=O)[C@H]2NC(=O)[C@H](CC(C)C)NC(=O)[C@H](C(C)O)NC(=O)[C@H](CC(=O)O)NC(=O)[C@H](CO)NC(=O)[C@H](CCCNC(=N)N)N(C)C(=O)[C@@H](NC(C)=O)C(C)(C)SSC2(C)C)C(N)=O)C(N)=O)C(C)(C)SSC1(C)C` (stereo partly drawn) [Peptide X, [Ac-Pen-(N-Me-Arg)-Ser-Asp-Thr-Leu-Pen-(Phe(4-tBu))-(β-homoGlu)-(D-Lys)]2-DIG] (I: Ac-[Pen][NMeR]SD[Thr(3ξ)]L[Pen][Phe(4-tBu)][β3hE][dK]-NH2 / II: Ac-[Pen][NMeR]SD[Thr(3ξ)]L[Pen][Phe(4-tBu)][β3hE][dK]-NH2; disulfide I:1-I:7, II:1-II:7; linker I:10-II:10 via Diglycolyl), the IC50 was 0.5 nM.
